{
  "source": "paper PMC12470154",
  "about": "“In Vitro Evaluation of Antimicrobial Amyloidogenic Peptides for the Treatment of Early and Mature Bacterial Biofilms” (International Journal of Molecular Sciences, 2025)",
  "key": {"[1]": {"test_system": "P. aeruginosa (2943 strain)", "assay": "Mature biofilms, crystal violet staining", "format": "cell-based, Pseudomonas aeruginosa", "parameters": "key: ↓: Decrease in the parameter (optical density) compared to the negative control; −: No decrease in the optical density; ↑: Reverse effect (increase in the optical density compared to the control)", "details": "mature biofilm: peptide added after 24 h, further 24 h, 0.01-10 mg/mL", "protocol": "(§1) After 24 h of incubation, the medium was removed. To assess the total biofilm biomass, the wells were rinsed with sterile PBS solution and stained with 0.1% crystal violet. The dye bound to the surface was then removed using 95% ethanol. To assess the presence of metabolically active cells, 0.3% MTT (PanEco Ltd., Moscow, Russia) solution was added to each well, and the plates were incubated at 37 °C for 2 h. After incubation, the MTT solution was removed, 150 µL of DMSO (Chimmed, Moscow, Russia) and 25 µL of glycine buffer were added to each well, and the plates were left at room temperature for 15 min. The resulting solutions were transferred to a flat-bottom 96-well plate, and optical density was measured at 595 nm.\n(§2) A stationary-phase culture of the tested strain was diluted 100-fold in fresh medium (200 µL per well) and added to the wells of a 96-well round-bottom plate. […] After another 24 h, the medium was removed and the wells were rinsed with sterile PBS to eliminate planktonic cells. The procedures for assessing total biofilm biomass and cell metabolic activity using crystal violet and MTT assays were performed in the same manner as described above for early-stage biofilm experiments."}, "[2]": {"test_system": "S. aureus (129B strain)", "assay": "Mature biofilms, crystal violet staining", "format": "cell-based, Staphylococcus aureus", "parameters": "key: ↓: Decrease in the parameter (optical density) compared to the negative control; −: No decrease in the optical density; ↑: Reverse effect (increase in the optical density compared to the control)", "details": "mature biofilm: peptide added after 24 h, further 24 h; 0.01-10 mg/mL", "protocol": "as §1, §2"}, "[3]": {"test_system": "MRSA (SA 180-F strain)", "assay": "Mature biofilms, MTT assay", "format": "cell-based, methicillin-resistant Staphylococcus aureus", "parameters": "key: ↓: Decrease in the parameter (optical density) compared to the negative control; −: No decrease in the optical density; ↑: Reverse effect (increase in the optical density compared to the control)", "details": "mature biofilm: peptide added after 24 h, further 24 h; 0.01-10 mg/mL", "protocol": "as §1, §2"}, "[4]": {"test_system": "S. aureus (129B strain)", "assay": "Mature biofilms, MTT assay", "format": "cell-based, Staphylococcus aureus", "details": "mature biofilm", "protocol": "as §1, §2"}, "[5]": {"test_system": "S. aureus (129B strain)", "assay": "Mature biofilms, MTT assay", "format": "cell-based, Staphylococcus aureus", "parameters": "key: ↓: Decrease in the parameter (optical density) compared to the negative control; −: No decrease in the parameter; ↑: Reverse effect (increase in the optical density compared to the control)", "details": "mature biofilm: peptide added after 24 h, further 24 h; 0.01-10 mg/mL", "protocol": "as §1, §2"}},
  "data": [
    {"sequence": "RKKRRQRRRGGGGVVVHINGGKFGGGGSRQIKIWFQNRRMKWKK [R44K^S]", "values": [
      {"measurement": "change of optical density after crystal violet staining vs negative control", "setting": "[1]; listed as R44K^P", "result": "−"}
    ]},
    {"sequence": "RKKRRQRRRGGGGVTDFGVFVEI [R23I^T, TAT cell-penetrating peptide linked via glycine linker to amyloidogenic fragment of S1 ribosomal protein of T. thermophilus]", "values": [
      {"measurement": "change of optical density after crystal violet staining vs negative control", "setting": "[2]", "result": "−"},
      {"measurement": "change of optical density after crystal violet staining vs negative control", "setting": "[1]", "result": "−"},
      {"measurement": "change of optical density after MTT assay vs negative control", "setting": "[3]", "result": "−"}
    ]},
    {"sequence": "ITDFGIFIGLGGGGSRQIKIWFQNRRMKWKK [I31K^P]", "values": [
      {"measurement": "metabolic activity of cells within mature biofilms (MTT)", "setting": "[4]; 0.01, 0.1, 1, and 10 mg/mL", "result": "decreased the metabolic activity"},
      {"measurement": "concentration given with ↓ (MTT)", "setting": "[4]", "result": 0.01, "unit": "mg/mL"},
      {"measurement": "change of optical density after MTT assay vs negative control", "setting": "[5]", "result": "↓ (0.01 mg/mL)"}
    ]}
  ]
}
